Results reported in patent publication US20150099012A1, “METHODS FOR ACTIVATING RETROVIRUS IN LATENT INFECTED CELLS, AND COMPOUNDS FOR USE THEREIN” (Erasmus University Medical Center Rotterdam, priority 2012, published 2015).
Entries after “also recorded” stand apart in the source; their conditions may differ.

B1: S33Y β-catenin: constitutively active β-catenin mutant, expressed from a nucleofected expression vector (protein, UniProt P35222 2-781, looked up, variant S33Y)
Catenin beta-1: ATQADLMELDMAMEPDRKAAVSHWQQQSYLDYGIHSGATTTAPSLSGKGNPEEEDVDTSQVLYEWEQGFSQSFTQEQVADIDGQYAMTRAQRVRAAMFPETLDEGMQIPSTQFDAAHPTNVQRLAEPSQMLKHAVVNLINYQDDAELATRAIPELTKLLNDEDQVVVNKAAVMVHQLSKKEASRHAIMRSPQMVSAIVRTMQNTNDVETARCTAGTLHNLSHHREGLLAIFKSGGIPALVKMLGSPVDSVLFYAITTLHNLLLHQEGAKMAVRLAGGLQKMVALLNKTNVKFLAITTDCLQILAYGNQESKLIILASGGPQALVNIMRTYTYEKLLWTTSRVLKVLSVCSSNKPAIVEAGGMQALGLHLTDPSQRLVQNCLWTLRNLSDAATKQEGMEGLLGTLVQLLGSDDINVVTCAAGILSNLTCNNYKNKMMVCQVGGIEALVRTVLRAGDREDITEPAICALRHLTSRHQEAEMAQNAVRLHYGLPVVVKLLHPPSHWPLIKATVGLIRNLALCPANHAPLREQGAIPRLVQLLVRAHQDTQRRTSMGGTQQQFVEGVRMEEIVEGCTGALHILARDVHNRIVIRGLNTIPLFVQLLYSPIENIQRVAAGVLCELAQDKEAAEAIEAEGATAPLTELLHSRNEGVATYAAAVLFRMSEDKPQDYKKRLSVELTSSLFRTEPMAWNETADLGLDIGAQGEPLGYRQDDPSYRSFHSGGYGQDALGMDPMMEHEMGGHHPGADYPVDGLPDLGHAQDLMDGLPPGDSNQLAWFDTDL

Columns and labels:
[1] = test system: latent HIV LTR; experiment: Activation of latent HIV LTR in J-Lat/S-Lat latently infected cell lines (GFP reporter, FACS); type: cell-based, HIV-1; details: single agents; J-Lat/S-Lat or 1G5 cells; FIG. 5
Experimental: A) S-Lat 46, J-Lat P32, J-Lat A2, J-Lat 11.1, S-Lat 24, S-Lat 9 and […], and GFP expression was monitored by FACS analysis to determine activation of the latent LTR. B) J-Lat P32 and (C) S-Lat 30 Jurkats and SupT1 cell lines harbouring latently infected HIV were either untreated or treated with 2, 5 or 10 mM LiCl as indicated. Expression of HIV-LTR driven P24 and GFP, and endogenous Wnt target genes AXIN2, MMP9, TCF1, as well as control GAPDH and NFkB target genes TLR2 and ICAM1 was monitored by qRT-PCR 72 hours after treatment. Expression data are presented as fold induction normalized to Cyclophillin A control.
(§1) Expression data are presented as fold induction normalized to Cyclophillin A control.

[2] = test system: b-catenin recruitment to HIV LTR; experiment: b-catenin ChIP at the HIV LTR in J-Lat cells; type: cell-based; details: latent J-Lat cells; FIG. 4D
Experimental: (§2) (A) Schematic representation of strategy to explore nucleosome position changes and enrichment of LEF/b-catenin at the HIV LTR in its repressed state and after Wnt activation. Jurkat latent cells at 0, and 12 hours after stimulation with LiCl, BIO VPA, or LiCl and VPA together were crosslinked and sonicated to yield DNA fragments of approximately 150 bp. DNA accessibility was monitored by formaldehyde-assisted isolation of regulatory elements (FAIRE) while nucleosome occupancy was determined by histone H2B Chromatin immunoprecipitations (ChIPs). To determine enrichment of LEF, b-catenin, or Histone Acetyl H3, we performed ChIPs with antibodies specific for LEF1, b-catenin, Ac H3. (B) Wnt activation by treatment with LiCl/BIO is accompanied by an increase in DNA accessibility over the DHS1 of the HIV LTR. […] FAIRE results are presented as fold change respective to the unstimulated value (normalized to 1) for each primer pair. (D) b-catenin while absent from the LTR in the repressed state, directly binds to the LTR upon LiCl/BIO activation. LEF1 binding, while present on the LTR in the repressed state is enriched upon LiCl/BIO treatment. […] Immunoprecipitated DNA from ChIPs and phenol:chloroform extracted DNA from FAIRE were analyzed by qPCR using primer pairs specific for the HIV LTR nuc-0, DHS1, nuc-1, and nuc-2 regions, and control region amplifying upstream of the Axin2 gene. […]

[3] = test system: LEF1 binding at HIV LTR; experiment: LEF1 ChIP at the HIV LTR in J-Lat cells; type: cell-based; details: latent J-Lat cells; FIG. 4D
Experimental: as §2

[4] = test system: histone acetylation on the HIV LTR; experiment: Histone Acetyl H3 ChIP at the HIV LTR in J-Lat cells; type: cell-based; details: latent J-Lat cells; FIG. 4D
Experimental: as §2

[5] = test system: HIV LTR DHS1 and nuc-1; experiment: FAIRE DNA accessibility at the HIV LTR; type: cell-based; details: latent J-Lat cells, 12 hours after stimulation; FIG. 4B
Experimental: as §2

[6] = test system: HIV LTR DHS1 and nuc-1; experiment: Histone H2B ChIP nucleosome occupancy at the HIV LTR; type: cell-based; details: latent J-Lat cells, 12 hours after stimulation; FIG. 4C
Experimental: as §2

[7] = test system: Wnt target genes AXIN2, TCF7(TCF1), MMP9, ZCCHC12, MMP2; experiment: qRT-PCR of endogenous Wnt target genes in latent HIV-infected Jurkat/SupT1 cell lines; type: cell-based; details: exogenous expression in S-Lat30; FIG. 6B
Experimental: as §1
(§3) Latent HIV-infected S-Lat 30 (A) and J-LatP32 (B) were treated with Wnt3A or control conditioned media. Relative mRNA expression levels of endogenous Wnt target genes AXIN2, ZCCHC12, TCF1, MMP9, the HIV P24 Gag and the LTR-reporter GFP, control (GAPDH) and NFkB target genes were quantitated by qRT-PCR. Expression data are presented as fold induction normalized to Cyclophillin A control.
A) S-Lat 46, J-Lat P32, J-Lat A2, J-Lat 11.1, S-Lat 24, S-Lat 9 and S-Lat 30 latently infected Jurkat and SupT1 cell lines were treated with Lithium Chloride (10 mM) for 2 hours, and GFP expression was monitored by FACS analysis to determine activation of the latent LTR. […] Expression of HIV-LTR driven P24 and GFP, and endogenous Wnt target genes AXIN2, MMP9, TCF1, as well as control GAPDH and NFkB target genes TLR2 and ICAM1 was monitored by qRT-PCR 72 hours after treatment. […]
as §3, with “In addition, latent” for “Latent”, “Expression data are presented as fold induction normalized to Cyclophillin A control.” left out

[8] = test system: NFkB target genes TLR2 and ICAM1; experiment: qRT-PCR of NFkB target genes in latent HIV-infected Jurkat/SupT1 cell lines; type: cell-based; details: exogenous expression in S-Lat30; FIG. 6B
Experimental: as §1, §3
A) S-Lat 46, J-Lat P32, J-Lat A2, J-Lat 11.1, S-Lat 24, S-Lat 9 and S-Lat 30 latently infected Jurkat and SupT1 cell lines were treated with Lithium Chloride (10 mM) for 2 hours, and GFP expression was monitored by FACS analysis to determine activation of the latent LTR. B) J-Lat P32 and (C) S-Lat 30 Jurkats and SupT1 cell lines harbouring latently infected HIV were either untreated or treated with 2, 5 or 10 mM LiCl as indicated. Expression of HIV-LTR driven P24 and GFP, and endogenous Wnt target genes AXIN2, MMP9, TCF1, as well as control GAPDH and NFkB target genes TLR2 and ICAM1 was monitored by qRT-PCR 72 hours after treatment. Expression data are presented as fold induction normalized to Cyclophillin A control.
as §3, with “In addition, latent” for “Latent”

[9] = test system: latent HIV (P24 Gag, LTR-reporter GFP); experiment: qRT-PCR of HIV P24 Gag and LTR-reporter GFP mRNA in latent HIV-infected cell lines; type: cell-based; details: exogenous expression in S-Lat30; FIG. 6B
Excerpt: (§4) A) Exogenous expression of S33Y β-catenin in S-Lat30 latent HIV infected cell line results in activation of TCF/LEF-driven TOPFLASH luciferase activity. […] S33Y β-catenin expression also results in a concomitant activation of latent HIV in S-Lat30 HIV infected cell line as quantitated by increased mRNA expression of HIV P24 Gag and the LTR-reporter GFP. Expression data are presented as fold induction normalized to Cyclophillin A control.
as §3
as §3, with “In addition, latent” for “Latent”, “control. […]” for “control.”

[10] = test system: TCF/LEF-driven TOPFLASH; experiment: TCF/LEF-driven TOPFLASH luciferase reporter in S-Lat30; type: cell-based; details: exogenous expression (nucleofection) in S-Lat30; FIG. 6A
Excerpt: as §4
For example, activation of the Wnt signaling pathway may be measured/quantitated by an increase In TCF-driven transcription in the cell after introduction of TOPFLASH (plasmid with tandem TCF/LEF consensus sites driving expression of the luciferase gene) into the cell via transfection/nucleofection. Increase in TOPFLASH (TCF-driven) and not FOPFLASH (TCF-mutant reporter) indicates activation of the Wnt signaling pathway.
S33Y β-catenin constitutively active mutant: Transfection (by nucleofection) of latent HIV infected cell lines with an expression vector for a constitutively active form of β-catenin, the molecular effector of the Wnt signaling pathway results in activation of latent HIV.

| Molecule | de-repression / activation of latent HIV LTR [1] | recruitment of b-catenin to the HIV LTR (ChIP) [2] | enrichment of LEF1 at the HIV LTR (ChIP) [3] | histone acetylation on the LTR (Ac H3 ChIP) [4] | DNA accessibility at the HIV LTR (FAIRE) [5] | nucleosome occupancy / histone density at the HIV LTR (H2B ChIP) [6] | mRNA expression of endogenous Wnt target genes AXIN2, MMP2, TCF1, ZCCHC12, MMP9 [7] | mRNA expression of control gene GAPDH and NFkb target genes TLR2 and ICAM1 [8] | mRNA expression of HIV P24 Gag and LTR-reporter GFP [9] | TCF-driven TOPFLASH luciferase activity [10] |
| --- | --- | --- | --- | --- | --- | --- | --- | --- | --- | --- |
| O=C1Nc2cc(Br)ccc2/C1=C1/Nc2ccccc2/C1=N\O [BIO, (2′Z,3′E)-6-Bromoindirubin-3′-oxime] | de-repression of latent HIV LTR; also recorded: activates the LTR in latently HIV infected cells | recruitment of b-catenin to LTR DHS1 and nuc-1 | enrichment of LEF1 at the HIV LTR | histone acetylation is increased on the LTR | increase accessibility | decreased nucleosome occupancy at DHS1 |  |  |  |  |
| B1 |  |  |  |  |  |  | increased mRNA expression of the endogenous Wnt target genes | not control gene GAPDH, or the NFkb target genes TLR2 and ICAM1 | increased mRNA expression of HIV P24 Gag as well as the LTR-reporter GFP | activation of TCF-driven TOPFLASH luciferase activity |
